Measured values from patent publication US11149028B2, “Methods for treating melanoma using small molecules” (NOVA SOUTHEASTERN UNIVERSITY, priority 2016, dated 2021).
“Also recorded” adds a separate entry of the source. One block for each compound: values may come before it.

How the values were obtained:
WM266-4 cells [1] = assay: CellTiter-Glo cell viability assay, WM266-4 (including rescue assays); assay type: cell-based, human; conditions: for IC50: WM 266-4, 72 h
Protocol: (§1) Cells were plated in 384-well plates in 8 μL of media. Test compounds and dabrafenib (pharmacological assay control) were prepared as 10-point, 1:3 serial dilutions starting at 300 μM, then added to the cells (4 μL per well) using the Biomek Plates were incubated for 72 h at 37° C., 5% CO2 and 95% relative humidity. After incubation, 4 μL of CellTiter-Glo® (Promega cat #: G7570) were added to each well, and incubated for 15 min at room temperature. Luminescence was recorded using a Biotek Synergy H4 multimode microplate reader. Viability was expressed as a percentage relative to wells containing media only (0%) and wells containing cells treated with DMSO only (100%). Three parameters were calculated on a per-plate basis: (a) the signal-to-background ratio (SB); (b) the coefficient for variation [CV; CV=(standard deviation/mean)×100)] for all compound test wells; and (c) the Z′-factor (18). The IC50 value of the pharmacological control (dabrafenib, LC Laboratories #G-4408) was also calculated to ascertain the assay robustness. In case of viability rescue assays, cells were pre-treated with caspase, calpain, and autophagy inhibitors for 1-3 h before addition of test compounds. Time course viability assay was done with luminescence measurements performed at 4, 24, 48, and 72 h.

[2] = test system: LC3-II and beclin-1 in WM266-4 cells; assay: Western blotting for LC3 and beclin-1, WM266-4; assay type: cell-based, human
Protocol: (§2) 1×10^6 of WM266-4 or M14 cells were seeded in 3 mL of E-MEM or RPMI-1640 medium supplemented with 10% FBS and 1% penicillin/streptomycin in 6 cm plates. […] After washing with TBST, the membranes were treated with chemilumiscent horseradish peroxidase detection reagent (Thermo Scientific, Cat #32209) and exposed to autoradiography film (Denville Scientific, Inc., Metuchen, N.J., USA, cat #E3018). ImageJ software (NIH, Bethesda, Md.) was used to quantify the intensity of proteins bands. The protein bands were normalized against loading controls (β-actin) and expressed as a fold of an untreated control.

[3] = test system: cleaved lamin A/C in WM266-4 cells; assay: Western blotting for lamin A/C cleavage; assay type: cell-based, human; conditions: for cleaved lamin A/C level: 100 μM, 24 h
Protocol: as §2, with “controls.” for “controls (β-actin) and expressed as a fold of an untreated control.”

DDX1 = target: T1, DDX1 (Homo sapiens, UniProt Q92499); assay: Pull-down with biotinylated analogs, western blot; assay type: binding; conditions: WM266-4 lysates
T1 construct: WM-266-4 and M14 cells were sonicated in RIPA lysis buffer; endogenous in cells; host or cells: WM266-4 (and M14) melanoma cells and lysates
Protocol: WM-266-4 and M14 cells were sonicated in RIPA lysis buffer containing added protease inhibitors. Affinity beads were prepared by addition of the 0.3 mg biotinylated probes to the 50 μL of streptavidin agarose resin, which was washed three times with the lysis buffer. Following incubation at 4° C. for 1 h, the obtained affinity beads complexed with biotinylated compounds were washed three times with lysis buffer to remove any unbound materials. The cell lysates (1 mg protein content) were then added to the probe-bound beads, and samples were incubated at 4° C. for 1 h and overnight on a rotator. Following 5 washes with lysis buffer, the samples were subjected to SDS-PAGE. The gels were stained overnight with colloidal blue (Invitrogen). […]
WM-266-4 cells were sonicated in RIPA lysis buffer containing protease inhibitors. […] Following 5 washes with lysis buffer, the protein isolates were subjected to SDS-PAGE followed by transfer to nitrocellulose membrane. hnRNP H2 was detected using rabbit polyclonal antibody (Abgent #: AP13497b; 1:3,000, in 2% milk overnight), DDX1 monoclonal antibody (Santa Cruz #sc-271393, 1:1,000 in 2% BSA overnight), or hnRNP B1/A2 monoclonal antibody (Santa Cruz #SC-32316, 1:1,000 in 2% BSA overnight). […] ImageJ software (NIH, Bethesda, Md.) was used to quantify the intensity of proteins bands. […]

hnRNP A2/B1 = assay: Pull-down with biotinylated analogs, western blot; assay type: binding, human; conditions: WM266-4 lysates
Protocol: (§3) WM-266-4 and M14 cells were sonicated in RIPA lysis buffer containing added protease inhibitors. Affinity beads were prepared by addition of the 0.3 mg biotinylated probes to the 50 μL of streptavidin agarose resin, which was washed three times with the lysis buffer. Following incubation at 4° C. for 1 h, the obtained affinity beads complexed with biotinylated compounds were washed three times with lysis buffer to remove any unbound materials. The cell lysates (1 mg protein content) were then added to the probe-bound beads, and samples were incubated at 4° C. for 1 h and overnight on a rotator. Following 5 washes with lysis buffer, the samples were subjected to SDS-PAGE. The gels were stained overnight with colloidal blue (Invitrogen). Gel bands of interest were excised, reduced, carbidomethylated, dehydrated, and digested with Trypsin Gold (Promega) as per manufacturers' instructions. Following digestion, peptides were extracted, all fractions were combined, and the volume was reduced in a SpeedVac to near dryness, and re-suspended to 20 μL using 95% ddH2O/5% ACN/0.1% formic acid (FA) prior to analysis by 1D reversed-phase LC-nESI-MS2 (as outlined below) (Ludwig, M. R. et al. Surveying the serologic proteome in a tissue-specific kras(G12D) knockin mouse model of pancreatic cancer. Proteomics 16, 516-531, doi:10.1002/pmic.201500133 2016).
(§4) WM-266-4 cells were sonicated in RIPA lysis buffer containing protease inhibitors. Affinity beads were prepared by addition of the biotinylated probes (0.3 mg) to the streptavidin agarose resin (50 μL), which was first washed three times with the lysis buffer. […] The protein extract (1 mg) was then added to the probe-bound beads, and samples were incubated at 4° C. overnight. Following 5 washes with lysis buffer, the protein isolates were subjected to SDS-PAGE followed by transfer to nitrocellulose membrane. hnRNP H2 was detected using rabbit polyclonal antibody (Abgent #: AP13497b; 1:3,000, in 2% milk overnight), DDX1 monoclonal antibody (Santa Cruz #sc-271393, 1:1,000 in 2% BSA overnight), or hnRNP B1/A2 monoclonal antibody (Santa Cruz #SC-32316, 1:1,000 in 2% BSA overnight). After washing with TBST, the membranes were treated with chemilumiscent horseradish peroxidase detection reagent (Thermo Scientific, Cat #32209) and exposed to autoradiography film (Denville Scientific, Inc., Metuchen, N.J., USA, cat #E3018). ImageJ software (NIH, Bethesda, Md.) was used to quantify the intensity of proteins bands. The protein bands were normalized against loading controls.

hnRNP H2 = assay: Pull-down with biotinylated analogs, western blot; assay type: binding, human; conditions: WM266-4 lysates
Protocol: as §3, §4

lamin A/C = assay: Pull-down with biotinylated analogs; assay type: binding, human; conditions: WM266-4 lysates
Protocol: as §3

[4] = test system: mouse embryonic fibroblasts (MEF); assay: Viability of mouse embryonic fibroblasts; assay type: cell-based
Protocol: as §1

WM266-4 cells [5] = assay: Cell staining for autophagy (autophagosome dye); assay type: cell-based, human; conditions: dansylated analog, 25 μM
Protocol: WM266-4 cells were seeded at 10,000 cells/well in 0.1 mL of E-MEM medium supplemented with 10% FBS and 1% penicillin/streptomycin in 96 well plates (Greiner Bio-One CellStar cat #655180) and allowed to adhere overnight. After overnight incubation 100 μM 2155-14, 2155-18, 50 nM hnRNPH2 siRNA or 25 μM 2476-67.2 were added and incubated for various length of time. Cells were rinsed with warm PBS and stained with CYTO-ID® 1.0 Autophagy reagent (Enzo ENZ-51031-0050) and counterstained with DAPI. Cells were imaged using Cytation 5 imager (Biotek Inc, Winooski, Vt.) using GFP and DAPI filter sets. For % autophagic cells calculations cell counts were conducted using DAPI-stained nuclei and Object Sum Area value was obtained from at least 1,000 cells/well using DAPI channels. To obtain number of cells undergoing autophagy the cell count was conducted using GFP channel. Both GFP and DAPI cell counts were conducted using optimized algorithm in automatic mode. 8 replicate wells were used. % autophagic cells was calculated using Equation 1:% autophagic cells=100%*(number of cells, GFP channenumber of cells, DAPI channel)
To calculate staining intensity, the Object Sum Area value from GFP channel was obtained and divided by number of cells using DAPI channel. Both GFP and DAPI cell counts were conducted using optimized algorithm in automatic mode. 3 replicate wells were used.

WM266-4 cells [6] = assay: Cell staining with dansylated derivatives of 2155-14; assay type: cell-based, human; conditions: 100 μM
Protocol: WM266-4 cells were seeded at 10,000 cells/well in 0.1 mL of E-MEM medium supplemented with 10% FBS and 1% penicillin/streptomycin in 96 well plates (Greiner Bio-One CellStar cat #655180) and allowed to adhere overnight. After overnight incubation cells were stained with 100 μM of fluorescent analogs of 2155-14 for various length of time, and rinsed with warm PBS. Cells were imaged using Cytation 5 imager (Biotek Inc, Winooski, Vt.) using custom filter set: λexcitation=377/50 and λemission=542/27 nm.

HSP90 = conditions: human, in vivo; cited from earlier work
calpain in WM266-4 cells = assay: Calpain activity assay (Calpain-Glo); assay type: cell-based, human; conditions: 20 μM; from 30 min, persisted at 4 and 24 h
Protocol: The Calpain-Glo Protease Assay (Promega cat #) was used to measure the calpain enzyme activity in live cells, according to the manufacturer's instructions. 1,250 of WM-266-4 cells were plated in 384-well white TC-treated plates in 5 μL of serum-free EMEM media. The cells were incubated overnight at 37° C., 5% CO2 and 95% relative humidity and 5 μL of test compounds 2155-14, (100 μM), calpain inhibitor III and PD151746 (25 μM) were added alone or in combination and incubated at 37° C., 5% CO2, and 95% relative humidity for 0.5, 4, and 24 h. After incubation, 10 μL, of a freshly prepared dilution of the Calpain-Glo Reagent stock solution (consisting of Suc-LLVY-Glo™ substrate, Calpain-Glo™ buffer, Luciferin Detection Reagent, and CaCl2) was added to cells at above mentioned times and luminescence was recorded with a Neo 2 microplate reader (Biotek Inc). All experiments were performed in triplicate and the values provided are the calculated average of at least three independent experiments.

T1 sequence (Q92499 whole entry): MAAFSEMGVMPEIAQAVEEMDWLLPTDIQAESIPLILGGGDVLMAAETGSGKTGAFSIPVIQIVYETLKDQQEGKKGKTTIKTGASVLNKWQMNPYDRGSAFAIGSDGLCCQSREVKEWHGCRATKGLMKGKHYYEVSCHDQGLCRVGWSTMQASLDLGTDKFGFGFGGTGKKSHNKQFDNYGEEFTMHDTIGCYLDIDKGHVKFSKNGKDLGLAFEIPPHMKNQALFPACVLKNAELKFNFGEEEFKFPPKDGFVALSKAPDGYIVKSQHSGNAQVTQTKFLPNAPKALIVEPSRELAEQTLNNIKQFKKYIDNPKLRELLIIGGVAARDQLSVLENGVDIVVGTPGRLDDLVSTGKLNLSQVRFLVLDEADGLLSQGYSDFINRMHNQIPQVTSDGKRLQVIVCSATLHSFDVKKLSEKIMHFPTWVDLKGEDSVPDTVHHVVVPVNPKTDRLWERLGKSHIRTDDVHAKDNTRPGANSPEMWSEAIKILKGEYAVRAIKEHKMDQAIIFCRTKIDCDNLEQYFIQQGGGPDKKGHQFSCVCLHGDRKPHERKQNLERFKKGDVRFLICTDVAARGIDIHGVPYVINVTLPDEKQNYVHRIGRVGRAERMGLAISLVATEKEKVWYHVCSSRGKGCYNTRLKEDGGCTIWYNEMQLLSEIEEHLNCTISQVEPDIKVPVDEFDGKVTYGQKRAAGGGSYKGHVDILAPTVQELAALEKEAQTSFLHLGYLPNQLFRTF

DDX1 in pulldown, western blot (DDX1): confirmed
Compound: O=C(CCCC[C@H]1SC[C@H]2NC(=O)N[C@H]21)NCCCC[C@H]1CN([C@H](CC2CCCCC2)CN2CCC[C@H]2CN2C(=O)C(=O)NC[C@@H]2Cc2ccccc2)C(=O)C(=O)N1CCc1ccccc1 [Compound 2529-7, N-(4-((S)-4-((R)-1-((S)-2-(((S)-6-benzyl-2,3-dioxopiperazin-1-yl)methyl)pyrrolidin-1-yl)-3-cyclohexylpropan-2-yl)-5,6-dioxo-1-phenethylpiperazin-2-yl)butyl)-5-((3aR,4R,6aS)-2-oxohexahydro-1H-thieno[3,4-d]imidazol-4-yl)pentanamide]
inhibition of WM266-4 viability (WM266-4 cells [1]; 100 μM, 72 h): completely inhibited viability
IC50 (WM266-4 cells [1]; Homo sapiens, 72 h): 3.3 ± 0.5 µM
LC3-II level ([2]; 100 μM, 24 h): increased LC3-II to the levels of 2155-14/2529-1; also recorded: effect on LC3-II levels similar to non-biotinylated 2155-14/2529-1
cleaved lamin A/C level [3]: failing to increase levels of cleaved lamin A/C; also recorded: had no effect on cleavage of lamin A/C; also recorded: did not induce cleavage of lamin A/C
hnRNP A2/B1 in pulldown, western blot (hnRNP A2/B1): three bands
hnRNP H2 in pulldown, western blot (hnRNP H2): two bands
lamin A/C interaction in pulldown (lamin A/C): lack of lamin A/C interaction

Compound: CCCS(=O)(=O)Nc1ccc(F)c(C(=O)c2c[nH]c3ncc(-c4ccc(Cl)cc4)cc23)c1F [vemurafenib, reference compound]
toxicity to mouse embryonic fibroblasts [4]: toxic

Compound: CN(C)c1cccc2c(S(=O)(=O)NCCN3C(=O)C(=O)N([C@H](CC4CCCCC4)CN4CCC[C@H]4CN4C(=O)C(=O)NC[C@@H]4Cc4ccccc4)C[C@@H]3Cc3ccc(O)cc3)cccc12 [Compound 2476-67.2, N-(2-((S)-4-((R)-1-((S)-2-(((S)-6-benzyl-2,3-dioxopiperazin-1-yl)methyl)pyrrolidin-1-yl)-3-cyclohexylpropan-2-yl)-6-(4-hydroxybenzyl)-2,3-dioxopiperazin-1-yl)ethyl)-5-(dimethylamino)naphthalene-1-sulfonamide]
autophagosome dye staining (WM266-4 cells [5]): intensive green staining
LC3-II level ([2]; 2.5 μM, 24 hr): no cleavage of lamin A/C or increase of levels of LC3-II was detected
LC3 western blot ([2]; 5 μM, 24 hr): neither of LC3 isoforms nor actin were detected
lamin A/C cleavage ([3]; 2.5 μM, 24 hr): no cleavage of lamin A/C
lamin A/C western blot ([3]; 5 μM, 24 hr): striking increase of cleaved lamin A/C
staining of cytoplasm (WM266-4 cells [6]): Diffuse staining of the cytoplasm
staining of nuclear envelope (WM266-4 cells [6]; 1 h up to 48 h): stains nuclear membrane in both WM266-4 and M14 cells

Compound: C=CCNC1=C2C[C@@H](C)C[C@H](OC)[C@H](O)[C@@H](C)/C=C(\C)[C@H](OC(N)=O)[C@@H](OC)/C=C\C=C(/C)C(=O)NC(=CC1=O)C2=O [Compound 17-AAG]
clinical outcome in patients carrying BRAF or NRAS mutation (HSP90): melanoma stabilization

Compound: O=C(CCCC[C@@H]1SC[C@@H]2NC(=O)N[C@@H]21)NCCCC[C@H]1CNC(=O)C(=O)N1C[C@@H]1CCCN1C[C@@H](CC1CCCCC1)N1C[C@H](Cc2ccc(O)cc2)N(CCc2ccccc2)C(=O)C1=O [Compound 2529-3, N-(4-((S)-1-(((S)-1-((R)-3-cyclohexyl-2-((S)-5-(4-hydroxybenzyl)-2,3-dioxo-4-phenethylpiperazin-1-yl)propyl)pyrrolidin-2-yl)methyl)-5,6-dioxopiperazin-2-yl)butyl)-5-((3aS,4S,6aR)-2-oxohexahydro-1H-thieno[3,4-d]imidazol-4-yl)pentanamide]
IC50 (WM266-4 cells [1]; Homo sapiens, 72 h): > 100 µM
cytotoxicity at 100 µM (WM266-4 cells [1]; Homo sapiens, WM 266-4, 100 μM, 72 h, read-out: maximal inhibition of cell viability): 42%
LC3-II level ([2]; 100 μM, 24 h): did not significantly increase
cleaved lamin A/C level [3]: did not significantly increase; also recorded: had no effect on cleavage of lamin A/C
hnRNP A2/B1 in pulldown, western blot (hnRNP A2/B1): no bands were found
hnRNP H2 in pulldown, western blot (hnRNP H2): two bands; also recorded: much less abundant

Compound: CCCNC(=O)[C@H]1O[C@@H]1C(=O)N[C@H](C(=O)N1CCC[C@H]1C(=O)O)[C@@H](C)CC [CA074, reference compound]
viability of WM266-4 cells (WM266-4 cells [1]; 24 h, 20 μM cathepsin B inhibitor): 25%
increase of calpain activity (calpain in WM266-4 cells): ~5 fold
